Experimental data published in patent publication US9062095B2, “Mutant double cyclized receptor peptides inhibiting β1-adrenoceptor antibodies” (JULIUS-MAXIMILIANS-UNIVERSTITAT-WURZBURG, priority 2007, dated 2015).
Positions of bridges follow the written chain, without caps; N, C: chain ends.

Legend:
[1] = system: anti-beta1-receptor antibody-titers; assay: in vivo therapy study in long term immunized cardiomyopathic rats: antibody-titers by ELISA; set-up: species or system rat; conditions: for in vivo blocking capacity after the first i.v. injection: sera 18-20 hours after injection (FIGS. 14 and 15)
Procedure: FIG. 16A is a diagram resuming the in vivo blocking effect of both 25AA and 18AA cyclopeptide mutants with a Gln closure site, determined after a total of nine intravenous (i.v.) in-jections of 1.0 mg/kg body weight (Bw) of the indicated peptides into immunized antibody-positive rats. Sera were drawn before and 18-20 hours after i.v. injection of the various peptides every 4 weeks (abscissa: time in months of treatment) and assayed for reactivity by ELISA using the 3 Cys-containing linear 25AA Cys/Cys-peptide as an antigen.
FIG. 16B is a diagram resuming the in vivo blocking effect of various concentrations of 18AA cyclopeptide mutants with a Gln closure site, determined after a total of nine intra-venous (i.v.) injections of 0.25, 1.0, 2.0, and 4.0 mg/kg body weight (Bw) into immunized antibody-positive rats, irrespective of the cyclopeptide “responder-state” of individual animals. Sera were drawn before and 18-20 hours after i.v. injection of the various peptides every 4 weeks (abscissa: time in months), and assayed for reactivity by ELISA using the 3 Cys-containing linear 25AA Cys/Cys-peptide as an antigen.
Sera were drawn as described above and assayed for reactivity by ELISA using the 3 Cys-containing linear 25AA Cys/Cys-peptide as an antigen.
Moreover, the in vivo blocking effects of therapeutically used 25AA and 18AA Cys/Ser cyclo-peptide mutants, the 18AA Ser/Cys mutant (Gln-)cyclopeptide, and a mutated linear 18AA Cys/Ser peptide were assessed after a first intravenous (i.v.) dose (i.e., 1.0 mg/kg body weight (Bw)) of each construct injected into long term immunized anti-beta1-ECII antibody-positive rats, yet presenting a cardiomyopathic phenotype (after nine months of 1× monthly immunization with the beta1-ECII/GST antigen; FIGS. 14-16 and 17). Sera were drawn 18-20 hours after the first i.v. injection of the various constructions and assayed for reactivity by ELISA using the 3 Cys-containing linear 25AA Cys/Cys-peptide as an antigen.
The latter doses were almost equally efficient in terms of both, neutralization of circulating receptor antibodies (FIGS. 16b and c), and reversal of antibody-induced cardiomyopathic features (FIGS. 17b, 19b, 20, and 21b).
In order to generate anti-β1-receptor antibodies the animals were immunized with a fusion protein containing bacterial glutathione-S-transferase and the sequence of the second extra-cellular loop of the human β1-adrenergic receptor (GST/β1-ECII). Before treatment of the animals with mutated cyclopeptides according to the present invention, progressive dilated immune cardiomyopathy is observed after 6 to 8 months of regular immunization every four weeks (FIG. 17). All of the immunized animals developed high titers of stimulatory anti-β1-ECII antibodies. The specific anti-β1-ECII titer reached a maximum between 6 and 8 months of continuously boosting the animals every 4 weeks, whereas NaCl-injected control animals developed no specific receptor antibodies (FIG. 18).
Such immunized animals were used for the application of mutant cyclopeptides according to the present invention. The in-vivo blocking effect of both 25AA and 18AA Cys/Ser mutant cyclopeptides (with a Gln closure site) were determined after a first intravenous (i.v.) injection of 1.0 mg/kg body weight (Bw) (for 18AA Cys/Ser cyclopeptides also 0.25 mg/kg/Bw) into immunized antibody-positive rats. Sera were drawn 18-20 hours after i.v. injection of the different peptides and assayed for reactivity by ELISA using the 3 Cys-containing linear 25AA Cys/Cys-peptide as an antigen.

[2] = system: beta1-ECII receptor antibody-titers; assay: in vivo therapy study cyc22AA versus cyc18AA Cys/Ser in rats immunized over 8 months: antibody-titers; set-up: species or system rat; conditions: injections every 4 weeks, start at month 8; mean ±SEM (FIG. 28A)
From the text: FIGS. 28A and B depict the in vivo blocking (=neutralization) capacity of two cysteine-containing 18AA or 22AA cyclopeptide-mutants of the second extracellular loop (ECII) of the human beta1-adrenergic receptor upon therapeutic injection of the different constructs into rats regularly immunized since 8 months (first=basic immunization followed by 7 antigen-boosts every 4 weeks). The effects of four to five subsequent cyclopeptide-injections every 4 weeks are shown. FIG. 28A depicts the mean values±SEM of each of the treated groups of immunized beta1-ECII-antibody positive cardiomyopathic rats (animal number per group is given in the legend). […] The remaining receptor antibody-titers after each injection in % of the antibody-titers at start therapy (month 8) are depicted (columns). Error bars indicate ±SEM. Numbers in columns indicate the number of (subsequent) monthly injection.
FIG. 28B depicts the time course of antibody-titers after 4 subsequent cyclopeptide-injections, determined before and 20-22 hours after application of the indicated constructs. Values are given in percent of increase or decrease in the respective antibody-titers after each cyclopeptide-injection compared with the antibody-titer determined at start of therapy (month 8). […]

Cyclo-Ala-Asp-Glu-Ala-Arg-Arg-Cys-Tyr-Asn-Asp-Pro-Lys-Cys-Ser-Asp-Phe-Val-Gln (cyclo(ADEARRCYNDPKCSDFVQ); disulfide 7-13; SMILES CC(C)[C@@H]1NC(=O)[C@H](Cc2ccccc2)NC(=O)[C@H](CC(=O)O)NC(=O)[C@H](CO)NC(=O)[C@@H]2CSSC[C@H](NC(=O)[C@H](CCCNC(=N)N)NC(=O)[C@H](CCCNC(=N)N)NC(=O)[C@H](C)NC(=O)[C@H](CCC(=O)O)NC(=O)[C@H](CC(=O)O)NC(=O)[C@H](C)NC(=O)[C@H](CCC(N)=O)NC1=O)C(=O)N[C@@H](Cc1ccc(O)cc1)C(=O)N[C@@H](CC(N)=O)C(=O)N[C@@H](CC(=O)O)C(=O)N1CCC[C@H]1C(=O)N[C@@H](CCCCN)C(=O)N2) [18AA Cys/Ser mutant (Gln-)cyclopeptide, disulphide bond Cys7-Cys13, ring closure Ala1-Gln18]
number of responders (after 7 injections remaining antibody level equal or inferior to 80% of titer at start of therapy) ([1]; 0.25 mg/kg Bw (FIG. 16C)): 3/4 | achieved decrease in circulating receptor-antibodies compared with 1.0 or 2.0 mg/kg ([1]; 0.25 mg/kg Bw, repeated injections every 4 weeks): clearly less efficient | in vivo blocking capacity after the first i.v. injection ([1]; 0.25 mg/kg body weight): no relevant decrease in receptor-antibodies | number of responders (after 7 injections remaining antibody level equal or inferior to 80% of titer at start of therapy) ([1]; 1.0 mg/kg Bw (FIG. 16C)): 16/20 | initial transient increase in antibody-titers ([1]; 1.0 mg/kg Bw (FIGS. 16a and b)): did not occur | in vivo blocking capacity after the first i.v. injection ([1]; 1 mg/kg Bw, listed as 18AA Cys/Ser cyclopeptide mutant): largely superior to that of the linear 18AA Cys/Ser peptide mutant | in vivo blocking capacity after the first i.v. injection ([1]; 1 mg/kg Bw, listed as 18AA Cys/Ser cyclopeptide mutants): higher in vivo blocking capacity | absolute decrease in antibody-titers after 9 months of treatment, of the titer at start of therapy ([1]; 1.0 mg/kg i.v. every 4 weeks): −59±14% | initial transient increase in antibody-titers ([1]; 2.0 mg/kg Bw): did not occur | number of responders (after 7 injections remaining antibody level equal or inferior to 80% of titer at start of therapy) ([1]; 2.0 mg/kg Bw (FIG. 16C)): 2/5 | absolute decrease in antibody-titers after 9 months of treatment, of the titer at start of therapy ([1]; 2.0 mg/kg i.v. every 4 weeks): −59±12% | number of responders (after 7 injections remaining antibody level equal or inferior to 80% of titer at start of therapy) ([1]; 4.0 mg/kg Bw (FIG. 16C)): 6/9 | initial transient increase in antibody-titers ([1]; 4.0 mg/kg Bw (high dose)): transient increase in antibody-titers | antibody scavenging capacity compared with 1.0 or 2.0 mg/kg ([1]; 4.0 mg/kg body weight, repeated injections every 4 weeks): did not result in higher efficiency | absolute decrease in antibody-titers after 9 months of treatment, of the titer at start of therapy ([1]; 4.0 mg/kg i.v. every 4 weeks): −39±14% | antibody-titer remaining after 4 injections in percent of the titer at start of therapy [2]: 76.0±23.0%
